Reference: patent US7456018B2, “Human hepatoma lines, methods for obtaining same and uses thereof” (priority 2001, dated 2008)
“Also recorded” adds a separate entry of the source.

Experiments:
[1] = system: HBV; experiment: Antiviral activity of 3TC on HBV-infected HepaRG cells, viral DNA by Amplicor-Monitor test; format: cell-based, hepatitis B virus; conditions: day 8 to 15 after infection, vs infected non-treated control
Experimental: (§1) The cells are maintained and infected according to the protocols of Examples 1 and 5.
[…] A complete replenishment of the medium is carried out every two days. The supernatants are stored at −20° C. and the cell pellets at −80° C.
The viral DNA present in the culture supernatant could be detected and quantified by the Amplicor-Monitor test (ROCHE). The results are expressed as number of viral particles/ml. For the analysis of intracellular viral DNA, the cells were separated with trypsin and stored at −80° C. The total DNA was isolated according to the protocol described previously (Zoulim et al., 1998, Drug therapy for chronic hepatitis B virus replication. J. Hepatol. 29:151-168).

[2] = system: HBV; experiment: HBs antigen in culture supernatant of HBV-infected HepaRG cells treated by 3TC (ELISA); format: cell-based, hepatitis B virus; conditions: after 8 days of treatment by 3TC, all doses
Experimental: as §1
The antiviral treatment by 3TC is administered from the 8th day to the 15th day following the infection of the HepaRG cells, at final concentrations of 0.1 and 10 μM in the culture medium. A complete replenishment of the medium is carried out every two days. The supernatants are stored at −20° C. and the cell pellets at −80° C.
The viral antigen (HBs) was detected in the culture supernatant using the commercial ELISA test ETI-MAK-3® (SORIN).

[3] = system: HepaRG cells; experiment: Biliary/hepatocyte route differentiation of HepaRG cells, in situ marking (indirect immunohistochemistry); format: cell-based, human; set-up: Cytokeratin 19 expression: key: −/+: weakly positive; +: positive; ++: highly positive; conditions: HepaRG cells treated with 2% DMSO or 3.75 mM sodium butyrate; as to Albumin expression: key: −/+: weakly positive; +: positive; ++: highly positive; as to Cytokeratin 7 expression: key: −/+: weakly positive; +: positive; ++: highly positive; as to α1 chain expression: key: −/+: weakly positive; +: positive; ++: highly positive; as to α6 chain expression: key: −/+: weakly positive; +: positive; ++: highly positive; as to γ-glutamyl transferase expression: key: −/+: weakly positive; +: positive; ++: highly positive
Experimental: HepaRG cells were separated, diluted to ⅕ in Williams' E medium to which 5 μg/ml of insulin, 100 U/ml of penicillin, 100 μg/ml of streptomycin, 510-5M of hydrocortisone hemisuccinate, 2 mM of L-glutamine and 10% FCS were added, then redistributed into wells with a plastic support. Four culture conditions were produced: • HepaRG cells were treated with 3.75 mM sodium butyrate in the maintenance medium as from the day following subculture according to the protocol described by Blouin et al. (1995, Specialization switch in differentiating embryonic rat liver progenitor cells in response to sodium butyrate, Exp. cell res., 217: 22-33). The medium is then replenished every 2-3 days, • the HepaRG cells were treated 5 days after subculture by 3.75 mM sodium butyrate or 2% DMSO. The medium was replenished every day for 5 days, • the HepaRG cells were treated at strong confluence by 3.75 mM sodium butyrate; the medium was replenished every 2-3 days, • the HepaRG cells were seeded on a plastic support or monolayer of rat primitive biliary epithelial cells in MEM alpha medium complemented with L-glutamine (2 mM), i-inositol (0.2 mM), folic acid ([…]), β-mercaptoethanol (10^−4 M), transferrin 200 μg/ml, 12.5% FCS and 12.5% horse serum. In certain situations, cytokines such as LIF, IL-3, SCF or G-CSF were added to the medium. This medium was replenished every 2-3 days. Indirect Immunohistochemistry
The cells after washing with PBS are fixed by a solution of 4% paraformaldehyde buffered by 0.1 M sodium cacodylate at pH 7.4 for 20 minutes at 4° C. They are then preserved in a PBS buffer until the time of the analysis.
The specific sites are saturated for 45 minutes with PBS containing 10% FCS. The samples are then treated with primary antibodies for an hour at ordinary temperature in PBS containing 0.05% saponin. After 3 washings in PBS containing 0.05% saponin, the samples are incubated with the second antibody coupled to peroxydase.
The morphological modifications observed in the presence of sodium butyrate are correlated to phenotypical changes (Blouin et al. 1995). We used four markers of differentiation towards the biliary route, γ-glutamyl transferase, the α6 chain of integrins and the cytokeratins 7 and 19 which normally disappear when the cells are directed towards the hepatocyte route. For differentiation towards the hepatocyte route, we looked for an increase in the expression of albumin and a reduction in the expression of the al chain of the integrins.

[4] = system: HepaRG cells; experiment: Toxicity of DMSO to HepaRG cells without corticoid; format: cell-based, human; conditions: 2% of DMSO, HepaRG cells in the absence of corticoid
Experimental: A first series of experiments was carried out in order to study the effects of the absence of the corticoid on cells having always been maintained in its presence. In FIG. 9A, the HepaRG cells at passage 13, were kept for 2 additional passages either in the continuous presence of hydrocortisone (growth: HN), or in the absence of hydrocortisone (growth: HO). They were then induced to differentiate (diff.) for 3 weeks in the absence of hydrocortisone (HO) or in the presence of hydrocortisone 5×10^−5 M (HN), and in the presence of different concentrations of DMSO.
The withdrawal of the corticoid was carried out at confluence, i.e. at the time when the cells begin their differentiation.
The cells are kept in a culture medium without corticoid and their ability to carry out differentiation is tested after 2 (FIG. 9A) and 10 passages (FIG. 9B).

[5] = system: HBV; experiment: Infectability of HepaRG cells by HBV according to culture/differentiation medium, HbsAg secretion; format: cell-based, hepatitis B virus
Experimental: The cells used for the infection are cells having been cultured according to the conditions defined in Example 1 (permanent presence of 5.10^−5M of hydrocortisone hemisuccinate) and having been maintained for a week at confluence, then for 2 weeks in the same medium with 2% of DMSO added.
These cells are incubated with the infectious source, diluted 10 times, in the culture medium with 4% of PEG 8000 (Sigma) added, for 20 hours at 37° C. The second part of this HBV infection protocol was established by Gripon et al., 1993, Virology, 192: 534-540.
At the end of the incubation, the cells are washed three times with culture medium and maintained in the presence of 2% of DMSO and 5.10^−5 M of hydrocortisone hemisuccinate until they are used.
The HBs antigen was detected in the medium using the ELISA kit (Monolisa AgHBs plus®) from Biorad Laboratories. The results are expressed in pg/ml of supernatant.
The ability of the HepaRG cells to be infected was studied as a function of their degree of differentiation. Using the methods described in Examples 1 and 2, the cell differentiation programme was modified.
A first series of infection was carried out on cells continually maintained in the presence of corticoid only, then in the presence of corticoid and different concentrations of DMSO, in order to induce different stages of differentiation.
This correlation was confirmed by a series of experiments carried out on cells infected at confluence (before their differentiation) then placed under optimum conditions in order to induce their differentiation.
Finally, the effectiveness of an infection carried out on undifferentiated cells multiplying actively was compared with that on cells with arrested growth and well-differentiated.

[6] = system: HCV; experiment: Sensitivity of HCV replication in infected HepaRG cells to interferon α, viral RNA by RT-PCR; format: cell-based; conditions: 5 U.I./ml
Experimental: These cells are incubated for 48 hours at 37° C. with the infectious source, diluted 10 times, in the culture medium devoid of FCS and optionally with PEG 8000 (Sigma) added.
The replicative forms of the intracellular viral RNAs were isolated in all the cell lysates. The cells are recovered after separation with trypsin, then the total RNA is extracted using the High Pure RNA Isolation kit (Roche). The quantity of total RNA extracted is estimated by optical density in order to standardize the different samples. The quality and homogeneity of the RNAs are examined by visualizing the ribosomic RNAs (rRNA: 28S and 18S) on a 1% agarose gel stained with ethidium bromide.
The RNAs of the viral particles are extracted from the culture supernatant using the High Pure viral RNA kit (Roche).
By retrotranscription (RT), the complementary DNA (cDNA) of the viral RNAs of positive polarity is synthesized from a specific prime hybridizing at 5′ of the region which codes for the viral capsid protein. This oligonucleotide (5′-[…]-3′), designated as SEQ ID NO:1, derived from that described by Martell et al., 1999, Journal of Clinical Microbiology, 37: 327-332 , designated C-342. The cDNA is then amplified by the “Polymerase Chain Reaction” (PCR) technique using two primers hybridizing in the 5′ non-translated region of the viral genome. The primers used are as follows: the sense oligonucleotide (5′-TGAGTGTCGTRCAGCCTCC-3′), designated as SEQ ID NO:2, and the antisense oligonucleotide (5′-[…]-3′), designated as SEQ ID NO:3, which corresponds to that conceived by Mercier et al., 1999, Journal of Virological Methods, 77 1-9, designated NCR-3. The amplification product (amplicon of 190 pb) is visualized on a 2% agarose gel stained with ethidium bromide. A marker of molecular weight of DNA (M) is also deposited in order to verify the identity of the amplicon by its size. The effectiveness of the different stages is always controlled by detecting the viral RNA present in a standard (T+), which corresponds to a diluted serum, originating from an infected patient. […]

## Nc1ccn([C@@H]2CS[C@H](CO)O2)c(=O)n1 [3TC]
[1]; 3TC 0.1 μM
  Inhibition (quantity of viral DNA): 69
[1]; 3TC 1 μM
  Inhibition (quantity of viral DNA): 98
[1]; 3TC 10 μM
  Inhibition (quantity of viral DNA): 100
[2]
  HBs antigen in the culture supernatant: constant whatever the dose and equal to the non-treated control

## C[S+](C)[O-] [DMSO]
[3]
  Albumin expression: ++
  α1 chain expression: +
  γ-glutamyl transferase expression: −/+
[4]
  Toxicity of the addition of DMSO: so toxic that its use is impossible; also recorded: highly toxic
[5]; DMSO 1% in differentiation medium after day 17, infection on day 15, supernatant 47 days after seeding
  HbsAg secretion: 70 pg/mL
[5]; DMSO 1% in differentiation medium after day 17, infection on day 28, supernatant 47 days after seeding
  HbsAg secretion: 214 pg/mL
[5]; DMSO 2% in differentiation medium after day 17, infection on day 15, supernatant 47 days after seeding
  HbsAg secretion: 79 pg/mL
[5]; DMSO 2% in differentiation medium after day 17, infection on day 28, supernatant 47 days after seeding
  HbsAg secretion: >2000 pg/mL

## CCCC(=O)[O-].[Na+] [Sodium butyrate, sodium butyrate]
[3]
  Albumin expression: −/+
  Cytokeratin 7 expression: +
  Cytokeratin 19 expression: ++
  α1 chain expression: −/+
  α6 chain expression: +
  γ-glutamyl transferase expression: ++

## hydrocortisone hemisuccinate [HN]
[5]; culture HN, HN after 17th day, infection D3 (growth), 47 days after seeding
  HbsAg secretion: 33 pg/mL
[5]; culture HN, HN after 17th day, infection D5 (growth), 47 days after seeding
  HbsAg secretion: 37 pg/mL
[5]; culture HN, HN after 17th day, infection D10 (confluence), 47 days after seeding
  HbsAg secretion: 93 pg/mL
[5]; culture HN, HN with 2% of DMSO after 17th day, infection D3 (growth), 47 days after seeding
  HbsAg secretion: 41 pg/mL
[5]; culture HN, HN with 2% of DMSO after 17th day, infection D5 (growth), 47 days after seeding
  HbsAg secretion: 84 pg/mL
[5]; culture HN, HN with 2% of DMSO after 17th day, infection D10 (confluence), 47 days after seeding
  HbsAg secretion: 171 pg/mL

## interferon α: antiviral cytokine (Introna®, Schering-Plough, France)
[6]; after four days of incubation, Day 10 to Day 12
  Extracellular viral RNA, kinetics: no extracellular viral RNA is detected
[6]; six days of treatment, 12th day after infection
  Viral RNA signal in the extracellular medium: complete disappearance of the signal
[6]; six days of treatment, 12th day after infection, serum No. 4
  Drop of the intracellular viral RNA signal: more than 60%
